Our source for the GI50 and TGI values is PubChem BioAssay (NCI).

Values joined by “and” are separate entries in the source; they are usually repeats but may differ in a detail not shown here. Identical values can stand only once.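 Grown in 96-well plates, cells were treated for 48 hours with each compound at five concentrations. Insufficient inhibition: endpoint recorded as highest concentration tested. GI50 marks 50% less growth. TGI: total growth inhibition.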 Where a SMILES comes first, the peptide text is derived from it. The star is where a group is joined. Cbz = O=C(OCc1ccccc1)*; CH2Cl = ClC*

Test systems include A498 renal; A549 NSCLC; HCT-15 colon; KM12 colon; NCI-H226 lung; OVCAR-3 ovarian; OVCAR-4 ovarian; SF-268 CNS; SN12C renal; SW-620 colon.
Holding throughout (assay): NCI anticancer screen, dose series, 48 h

On to `C=C(C)[C@@H]1CC[C@]2(C)[C@H](CC=C3[C@@H]4CC(C)(C)CC[C@]4(C(N)=O)CC[C@]32C)[C@@]1(C)CCC#N`, for which the GI50 with A498 renal was 2160 nM; in the test with A549 NSCLC it was 4.1 µM; with HCT-15 colon, 3.14 µM; with KM12 colon, 3100 nM; with NCI-H226 lung, 2940 nM; in the test on OVCAR-3 ovarian, 3.49 µM. Further, the GI50 is 2.56 µM in the test with OVCAR-4 ovarian, 5.28 µM in the test on SF-268 CNS, 1840 nM in the test with SN12C renal and 3210 nM in the test with SW-620 colon. In addition, the TGI in the test with A498 renal is 5.32 µM; with A549 NSCLC, above 100 µM; in the test on HCT-15 colon, above 100 µM; in the test with KM12 colon, 14.8 µM; in the test on NCI-H226 lung it was 9.41 µM; with OVCAR-3 ovarian it was above 100 µM. The TGI with OVCAR-4 ovarian is above 100 µM; in the test with SF-268 CNS, above 100 µM; in the test on SN12C renal, 3.7 µM; with SW-620 colon it was 30.1 µM.
With `CC(C)CC(NC(=O)OCc1ccccc1)C(=O)NC(Cc1ccccc1)C(=O)CCl` (stereo not drawn) (Cbz-Leu-Phe-CH2Cl; configuration not given here), the TGI amounted to 71.2 µM with A498 renal; 39.4 µM with A549 NSCLC; 3.34 µM in the test with HCT-15 colon; 35.3 µM in the test with KM12 colon; 3.98 µM in the test on NCI-H226 lung; 8.26 µM in the test with OVCAR-3 ovarian. For the same compound, the TGI in the test on OVCAR-4 ovarian turned out to be 4.69 µM; in the test with SF-268 CNS it was 9.88 µM; in the test with SN12C renal, 3.39 µM; with SW-620 colon, 3.94 µM.
As to `COc1ccc2c(c1)C(=O)c1c-2c(N2CCN(C(=O)CNCCNCCO)CC2)nc2ccccc12`, the GI50 with A498 renal is 8320 nM; in the test on A549 NSCLC, 7.1 µM; in the test with HCT-15 colon, 7.81 µM; in the test with KM12 colon it was 2480 nM; in the test with NCI-H226 lung, 10900 nM; in the test on OVCAR-3 ovarian it was 11.7 µM. Moreover, the GI50 in the test with OVCAR-4 ovarian is 6.71 µM; with SF-268 CNS, 2.97 µM; in the test on SN12C renal it was 3910 nM; in the test on SW-620 colon it was 1730 nM. The TGI was found to be 20.2 µM with A498 renal; 24.3 µM with A549 NSCLC; 22.4 µM in the test on HCT-15 colon; 5.79 µM in the test with KM12 colon; 29.5 µM in the test on NCI-H226 lung; 31.2 µM in the test on OVCAR-3 ovarian. The TGI with OVCAR-4 ovarian worked out at 19.4 µM; with SF-268 CNS, 9.38 µM; in the test with SN12C renal it was 13.3 µM; in the test with SW-620 colon, 3.28 µM.
Turning to `CS(=O)(=O)CCNCc1nc(-c2ccc3ncnc(Nc4ccc(OCc5cccc(C(F)(F)F)c5)cc4)c3c2)cs1`, the GI50 in the test on A498 renal was 4100 nM; with A549 NSCLC it was above 22 µM; in the test with HCT-15 colon, above 25 µM; in the test on KM12 colon it was above 25000 nM; with NCI-H226 lung, above 25000 nM; in the test with OVCAR-3 ovarian, above 17.3 µM. Further, the GI50 in the test with OVCAR-4 ovarian was above 25 µM; in the test on SF-268 CNS it was 12.8 µM; in the test with SN12C renal, above 25000 nM; in the test with SW-620 colon it was above 25000 nM. Besides, the TGI in the test with A498 renal, with A549 NSCLC, in the test on HCT-15 colon, in the test with KM12 colon, in the test with NCI-H226 lung and in the test with OVCAR-3 ovarian was above 25 µM each time. Further, the TGI in the test with OVCAR-4 ovarian, in the test with SF-268 CNS, with SN12C renal and with SW-620 colon was above 25 µM in each case.
On to `O=c1ccn([C@H]2CSC[C@@H](CO)C2)c(=O)[nH]1`, for which the TGI in the test with A498 renal, in the test on A549 NSCLC, in the test with HCT-15 colon, with KM12 colon, in the test on NCI-H226 lung and in the test with OVCAR-3 ovarian was above 100 µM in each case. For the same compound, the TGI in the test on OVCAR-4 ovarian, in the test on SF-268 CNS, in the test on SN12C renal and with SW-620 colon was above 100 µM each time.
On to `O=C(N[C@@H](c1ccc(Cl)c(Cl)c1)C1CNC1)c1ccc2cnccc2c1`, for which the GI50 was 157 nM in the test on A498 renal; 0.417 µM with A549 NSCLC; 1.6 µM in the test on HCT-15 colon; 314 nM with KM12 colon; 626 nM with NCI-H226 lung; 1.56 µM in the test with OVCAR-3 ovarian. Moreover, the GI50 with OVCAR-4 ovarian was 1.8 µM; in the test with SF-268 CNS, 0.924 µM; in the test on SN12C renal, 715 nM; in the test on SW-620 colon it was 410 nM. Moreover, the TGI in the test with A498 renal was 1.36 µM; with A549 NSCLC, 12.5 µM; in the test with HCT-15 colon, 12 µM; with KM12 colon it was 4.44 µM; in the test on NCI-H226 lung, 5.43 µM; with OVCAR-3 ovarian it was 13.2 µM. Besides, the TGI was 12.7 µM with OVCAR-4 ovarian, 3.16 µM in the test with SF-268 CNS, 7.45 µM in the test with SN12C renal and 12.3 µM with SW-620 colon.
Regarding `COc1cc(Cn2c(-c3ccccc3)c(Cl)c3c2-c2oncc2CC3)cc(OC)c1`, the GI50 was 2960 nM in the test on A498 renal; 8.57 µM with A549 NSCLC; 4.84 µM in the test on HCT-15 colon; 4190 nM with KM12 colon; 13000 nM in the test on NCI-H226 lung; 4.63 µM in the test on OVCAR-3 ovarian. The GI50 in the test on OVCAR-4 ovarian was 6.57 µM; with SF-268 CNS it was 9.61 µM; in the test on SN12C renal, 12700 nM; with SW-620 colon it was 3700 nM. The TGI in the test with A498 renal was 90.3 µM; in the test on A549 NSCLC, above 100 µM; in the test on HCT-15 colon, above 100 µM; in the test with KM12 colon, above 100 µM; in the test with NCI-H226 lung, 43.3 µM; in the test with OVCAR-3 ovarian, 22.9 µM. The TGI is 79.8 µM in the test on OVCAR-4 ovarian, above 100 µM in the test with SF-268 CNS, 38.4 µM with SN12C renal and 19.2 µM with SW-620 colon.
In the case of `COc1cccc(C2=NC(C(C)C)CO2)c1` (configuration not stated), the TGI in the test with A498 renal, in the test with A549 NSCLC, in the test with HCT-15 colon, with KM12 colon, with NCI-H226 lung and in the test with OVCAR-3 ovarian was above 100 µM in each case. In addition, the TGI with OVCAR-4 ovarian, in the test on SF-268 CNS, in the test with SN12C renal and with SW-620 colon was above 100 µM in each case.
As for `C=C(Cl)C(Br)(CCl)CCC(Br)C(C)(C)Cl` (configuration not stated), the TGI with A498 renal was 35.3 µM; in the test with A549 NSCLC, 38.1 µM; with HCT-15 colon, 9.57 µM and 3.94 µM; in the test with KM12 colon, 9.46 µM; in the test with NCI-H226 lung it was 5.22 µM; in the test with OVCAR-3 ovarian, 3.73 µM. In addition, the TGI was 8.24 µM in the test on OVCAR-4 ovarian; 8.32 µM and 8.82 µM in the test with SF-268 CNS; 7.06 µM and 3.6 µM with SN12C renal; 4.54 µM and 3.23 µM in the test on SW-620 colon. Besides, the GI50 in the test with HCT-15 colon was 2.01 µM; with KM12 colon it was 2940 nM; in the test on NCI-H226 lung it was 1910 nM; with OVCAR-3 ovarian, 2.01 µM; with OVCAR-4 ovarian it was 3.25 µM; in the test on SN12C renal it was 1890 nM. For the same compound, the GI50 in the test with SW-620 colon is 1460 nM.
